Assay [1] deals with T1, Substance-P receptor (Homo sapiens, UniProt P25103). As to the kind of experiment: Concentration required for displacement of [125I]-labeled substance P from cloned hNK1 receptor expressed in CHO cells(*). The assay is classed as cell-based.
Assay [2] relates to Gerbillinae. The assay can be described thus: In vivo percent inhibition of gerbil foot-tapping after 3 mg/kg, iv administration prior to icv infusion of GR-73632 in vehicle-treated animals. Format: functional.
Assay [3] deals with T1, Substance-P receptor. The assay can be described thus: Tested for displacement of [125I]-labeled substance P from cloned hNK1 receptor expressed in CHO cells (*). Format: cell-based. The note with it: concentration not given here. A general note: Displacement assays read how much labelled ligand stays bound in the presence of the test substance.
Assay [4] has as its system Gerbillinae. As to the kind of experiment: In vivo inhibitory dose against gerbil foot-tapping after iv administration prior to icv infusion of GR-73632 in vehicle-treated animals. As to conditions: read-out: ID50 (the source's name). The assay is classed as functional.
Assay [5] concerns Gerbillinae. As to the kind of experiment: In vivo inhibitory dose against gerbil foot-tapping after iv administration prior to icv infusion of GR-73632 for a duration of 5 min in vehicle-treated animals. As to conditions: read-out: ID50 (the source's name). The assay is classed as functional.
In assay [6] the target is T1, Substance-P receptor. The assay can be described thus: Tested for displacement of [125I]-labeled substance P from cloned hNK1 receptor expressed in CHO cells at 100 nM. Format: cell-based.

T1 sequence (P25103 whole entry, the tested form may be a part): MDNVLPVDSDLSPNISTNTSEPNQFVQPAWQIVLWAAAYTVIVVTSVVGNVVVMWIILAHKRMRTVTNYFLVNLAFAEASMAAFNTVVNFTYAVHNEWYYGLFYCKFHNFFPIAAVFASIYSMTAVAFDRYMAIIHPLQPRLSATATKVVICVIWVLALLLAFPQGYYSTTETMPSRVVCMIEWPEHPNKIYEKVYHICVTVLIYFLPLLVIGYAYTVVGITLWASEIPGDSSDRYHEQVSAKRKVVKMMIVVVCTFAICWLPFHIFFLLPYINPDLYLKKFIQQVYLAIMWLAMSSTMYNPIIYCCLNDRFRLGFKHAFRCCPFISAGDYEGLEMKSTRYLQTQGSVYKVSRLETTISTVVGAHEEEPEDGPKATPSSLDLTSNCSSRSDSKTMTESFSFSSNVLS

The term IC50 denotes the concentration that inhibits the measured activity by half. Read a high IC50 as weaker potency in that assay. As to `Cn1c(-c2ccccn2)c(CCC(=O)N2CCC(O)(Cc3ccccc3)CC2)c2cc(Cl)ccc21`, on Substance-P receptor [1], the IC50 is 2.9 nM.
For `COC(=O)Cn1c(-c2ccc(Cl)cc2)c(CCC(=O)N2CCN(c3ccccc3OC)CC2)c2cc(Cl)ccc21`, the IC50 on Substance-P receptor [1] worked out at 15 nM.
As to `COc1ccccc1N1CCN(C(=O)CCc2c(-c3ccc(Cl)cc3)n(Cc3ccccc3)c3ccc(Cl)cc23)CC1`, at Substance-P receptor [1], the IC50 is 96 nM.
The same measure, in the same setting: under `COc1ccc(-c2[nH]c3ccc(C)cc3c2CCC(=O)N2CCN(c3ccccc3OC)CC2)cc1` stands 1.5 nM; under `COc1ccccc1N1CCN(C(=O)CCc2c(-c3ccc(Cl)cc3)n(CC3CC3)c3ccc(Cl)cc23)CC1`, 103 nM.
What is called inhibition in vivo is the drop in the measured response relative to a control, in per cent. Read a high inhibition in vivo as a response far below the control. On to `COc1ccccc1N1CCN(C(=O)CCc2c(-c3ccc(Cl)cc3)n(C)c3ccc(C)cc23)CC1`, for which 3 mg/kg produced 100% inhibition in vivo in the assay with Gerbillinae [2]. Further, the IC50 on Substance-P receptor [1] is 0.11 nM.
On to `COc1cccc(-c2[nH]c3ccc(C)cc3c2CCC(=O)N2CCN(c3ccccc3OC)CC2)c1`, for which the IC50 on Substance-P receptor [1] amounted to 8 nM.
What is called inhibition is how much of the control response was suppressed. Read a low inhibition as a response near the control. Turning to `COc1ccccc1N1CCN(C(=O)CCc2c(-c3ccncc3)[nH]c3ccc(C)cc23)CC1`, the inhibition at Substance-P receptor [3] is 58%.
At Substance-P receptor [1], `COc1ccccc1N1CCN(C(=O)CCc2c(-c3ccc(Cl)cc3)n(CCO)c3ccc(Cl)cc23)CC1` showed an IC50 of 0.97 nM.
`COc1ccccc1N1CCN(C(=O)CCc2c[nH]c3ccc(C)cc23)CC1`: the inhibition on Substance-P receptor [3] worked out at 18%.
On Substance-P receptor [1], `COc1ccccc1N1CCN(C(=O)CCc2c(-c3ccccc3Br)[nH]c3ccc(C)cc23)CC1` displayed an IC50 of 89 nM.
In the assay on Gerbillinae [2], `COc1ccccc1N1CCN(C(=O)CCc2c(-c3ccc(Br)cc3)[nH]c3ccc(C)cc23)CC1` gave an inhibition in vivo at 3 mg/kg of 46%.
In turn, `Cn1c(-c2cccnc2)c(CCC(=O)N2CCC(O)(Cc3ccccc3)CC2)c2cc(Cl)ccc21` came in with an IC50 at Substance-P receptor [1] of 0.92 nM.
Compound `COc1ccccc1N1CCN(C(=O)CCc2c(-c3ccc(C(C)C)cc3)n(C)c3ccc(C)cc23)CC1` came in with an inhibition in vivo at 3 mg/kg with Gerbillinae [2] of 100%. This compound gave an IC50 on Substance-P receptor [1] of 0.33 nM.
Consider `Cc1ccc(-c2c(CCC(=O)N3CCC(O)(Cc4ccccc4)CC3)c3cc(Cl)ccc3n2C)cn1`, for which the IC50 on Substance-P receptor [1] was determined as 0.12 nM. Also, the ED50 in the assay on Gerbillinae [4] is 0.68 mg/kg.
Consider `COc1ccccc1N1CCN(C(=O)CCc2c(-c3ccccc3)[nH]c3ccc(C)cc23)CC1`, for which the IC50 at Substance-P receptor [1] stood at 6.1 nM.
Consider `COc1ccccc1N1CCN(C(=O)CCc2c(-c3ccc(Br)cc3)n(C)c3ccc(C)cc23)CC1`, for which 3 mg/kg produced 100% inhibition in vivo in the assay with Gerbillinae [2]. Moreover, the ED50 in the assay with Gerbillinae [5] was found to be 0.5 mg/kg. Further, at Substance-P receptor [1], the IC50 was 0.14 nM.
In turn, `COc1ccccc1N1CCN(C(=O)CCc2c(-c3ccc(Cl)cc3)[nH]c3ccc(C)cc23)CC1` came in with an inhibition in vivo at 3 mg/kg in the assay on Gerbillinae [2] of 22%.
The compound `COc1ccccc1N1CCN(C(=O)CCc2c(-c3cccc(Br)c3)[nH]c3ccc(C)cc23)CC1` returned an inhibition at Substance-P receptor [3] of 37%.
For `COc1ccccc1N1CCN(C(=O)CCc2c(-c3ccc(-c4ccccc4)cc3)[nH]c3ccc(C)cc23)CC1`, the IC50 on Substance-P receptor [1] was 7.6 nM.
On the same count and under the same terms, to `COc1ccccc1N1CCN(C(=O)CCc2c(-c3ccc(Cl)cc3)n(C)c3ccc(Cl)cc23)CC1` belongs 0.28 nM.
In turn, `COc1ccccc1N1CCN(C(=O)CCc2c(-c3ccc(C(C)C)cc3)[nH]c3ccc(C)cc23)CC1` yielded an inhibition in vivo at 3 mg/kg in the assay with Gerbillinae [2] of 100%. On Substance-P receptor [1], this compound returned an IC50 of 0.2 nM.
As for `COc1ccccc1N1CCN(C(=O)CCc2c(-c3ccc(Cl)cc3)n(C(C)C)c3ccc(Cl)cc23)CC1`, on Substance-P receptor [1], the IC50 came to 5.2 nM.
For `COc1ccccc1N1CCN(C(=O)CCc2c3n(c4ccc(C)cc24)Cc2ccccc2-3)CC1`, the inhibition on Substance-P receptor [6] turned out to be 55%.
`Cn1c(-c2ccc(C(F)(F)F)cn2)c(CCC(=O)N2CCC(O)(Cc3ccccc3)CC2)c2cc(Cl)ccc21` returned an IC50 at Substance-P receptor [1] of 0.12 nM. In the assay with Gerbillinae [4], the ED50 came to 0.1 mg/kg.
Turning to `COc1ccccc1N1CCN(C(=O)CCc2c(-c3ccc(C(F)(F)F)cc3)[nH]c3ccc(C)cc23)CC1`, the IC50 on Substance-P receptor [1] came to 0.44 nM.
`COc1ccccc1-c1[nH]c2ccc(C)cc2c1CCC(=O)N1CCN(c2ccccc2OC)CC1` displayed an IC50 on Substance-P receptor [1] of 82 nM.
The same measure, in the same setting: under `COc1ccccc1N1CCN(C(=O)CCc2c(-c3ccc(C(C)(C)C)cc3)[nH]c3ccc(C)cc23)CC1` stands 6.3 nM.
Consider `COc1ccccc1N1CCN(C(=O)CCc2c(-c3ccc(C(F)(F)F)cc3)n(C)c3ccc(C)cc23)CC1`, for which the inhibition in vivo at 3 mg/kg in the assay with Gerbillinae [2] was 93%. For the same compound, the IC50 at Substance-P receptor [1] is 0.14 nM.
